According to US20180071317A1, “USE OF AGENTS THAT ALTER THE PERITUMORAL ENVIRONMENT FOR THE TREATMENT OF CANCER” (SERVICIO ANDALUZ DE SALUD, priority 2011, published 2018):

Legend:
[1] = system: tumor cells from primary human tumors (MAP Kinase pathway); assay: Proliferation of primary human tumor cells (ERK modified or unchanged) alone or with stromal fibroblasts; assay type: cell-based; conditions: antagonist 1 μM
[2] = system: tumor cells from primary human tumors (MAP Kinase pathway); assay: Proliferation of primary human tumor cells (ERK modified or unchanged) alone or with macrophages; assay type: cell-based; conditions: antagonist 1 μM
[3] = system: tumor cells from primary human tumors (PI3 Kinase pathway); assay: Proliferation of primary human tumor cells (AKT modified or unchanged) alone or with macrophages; assay type: cell-based; conditions: antagonist 1 μM
[4] = system: cell line C-12210 (microvascular endothelial cells); assay: Proliferation of C-12210 endothelial cell cultures (MTS); assay type: cell-based, human;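 further: MTS colorimetric read-out in culture wells, absorbance at 492 nm with 690 nm reference, MTS added 90 min before reading, blank without cells, compared with untreated control cells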
[5] = irrespective of MAP Kinases pathway integrity

## C[C@@H](O[C@H]1OCCN(Cc2n[nH]c(=O)[nH]2)[C@H]1c1ccc(F)cc1)c1cc(C(F)(F)F)cc(C(F)(F)F)c1 [Aprepitant]
[1]; ERK modified or unchanged
  growth of primary tumor cells cultured alone (in words): only inhibits the growth of cells in which the receptor acts NK1 through the MAP Kinases pathway
[1]; [5]
  proliferation of primary tumor cells co-cultured with stromal fibroblasts (in words): produces a proliferation of inhibition of tumor cells
[2]; ERK modified or unchanged
  growth of primary tumor cells cultured alone (in words): only inhibits the growth of cells in which said receptor acts through the MAP Kinases pathway
[2]; [5]
  proliferation of primary tumor cells co-cultured with macrophages (in words): produces a proliferation of inhibition of tumor cells
[3]; AKT modified or unchanged
  growth of primary tumor cells cultured alone (in words): only inhibits the growth of cells in which said receptor acts through the PI3 Kinase pathway
[3]; irrespective of PI3 Kinase pathway integrity
  proliferation of primary tumor cells co-cultured with macrophages (in words): produces a proliferation of inhibition of tumor cells

## CSCC[C@H](NC(=O)[C@H](CC(C)C)NC(=O)CNC(=O)[C@H](Cc1ccccc1)NC(=O)[C@H](Cc1ccccc1)NC(=O)[C@H](CCC(N)=O)NC(=O)[C@H](CCC(N)=O)NC(=O)[C@@H]1CCCN1C(=O)[C@H](CCCCN)NC(=O)[C@@H]1CCCN1C(=O)[C@@H](N)CCCNC(=N)N)C(N)=O [SP]
[4]; SP 10 nM, exposure 0 h
  proliferation, percentage of control ± SD: 102.2 ± 1%
[4]; SP 10 nM, exposure 24 h
  proliferation, percentage of control ± SD: 119.1 ± 1.8%
[4]; SP 10 nM, exposure 48 h
  proliferation, percentage of control ± SD: 139.3 ± 3.1%
[4]; SP 10 nM, exposure 72 h
  proliferation, percentage of control ± SD: 134.3 ± 2.8%
[4]; SP 100 nM, exposure 0 h
  proliferation, percentage of control ± SD: 109.5 ± 2.9%
[4]; SP 100 nM, exposure 24 h
  proliferation, percentage of control ± SD: 17 ± 2.7%
[4]; SP 100 nM, exposure 48 h
  proliferation, percentage of control ± SD: 21 ± 2.6%
[4]; SP 100 nM, exposure 72 h
  proliferation, percentage of control ± SD: 32.4 ± 3.3%
[4]; SP 500 nM, exposure 0 h
  proliferation, percentage of control ± SD: 128.9 ± 2.7%
[4]; SP 500 nM, exposure 24 h
  proliferation, percentage of control ± SD: 137 ± 3.8%
[4]; SP 500 nM, exposure 48 h
  proliferation, percentage of control ± SD: 146 ± 4.7%
[4]; SP 500 nM, exposure 72 h
  proliferation, percentage of control ± SD: 158.5 ± 4.6%
[4]; SP 1 μM, exposure 0 h
  proliferation, percentage of control ± SD: 175.3 ± 5.2%
[4]; SP 1 μM, exposure 24 h
  proliferation, percentage of control ± SD: 186 ± 6.3%
[4]; SP 1 μM, exposure 48 h
  proliferation, percentage of control ± SD: 194.4 ± 6.5%
[4]; SP 1 μM, exposure 72 h
  proliferation, percentage of control ± SD: 199 ± 5.5%
[4]; SP 50 μM, exposure 0 h
  proliferation, percentage of control ± SD: 218 ± 3.5%
[4]; SP 50 μM, exposure 24 h
  proliferation, percentage of control ± SD: 242 ± 6.7%
[4]; SP 50 μM, exposure 48 h
  proliferation, percentage of control ± SD: 247 ± 6.5%
[4]; SP 50 μM, exposure 72 h
  proliferation, percentage of control ± SD: 259.4 ± 4.1%
[4]; SP 100 μM, exposure 0 h
  proliferation, percentage of control ± SD: 236.4 ± 5.6%
[4]; SP 100 μM, exposure 24 h
  proliferation, percentage of control ± SD: 258 ± 4.5%
[4]; SP 100 μM, exposure 48 h
  proliferation, percentage of control ± SD: 259.5 ± 4.6%
[4]; SP 100 μM, exposure 72 h
  proliferation, percentage of control ± SD: 266.9 ± 6.8%
[4]; increasing concentrations
  effect on growth/proliferation of C-12210 cells (in words): stimulating effect on the growth of human endothelial cells
